Data: article PMC6272279, “Carboxylated Acyclonucleosides: Synthesis and RNase A Inhibition” (Molecules, 2015)

What was measured:
RNase A [1] = target: T1, RNase A (Bos taurus, UniProt P61823); test: Circular dichroism of RNase A secondary structure with inhibitor; parameters: species or system Bovine; settings: RNase A 30 µM mixed with inhibitor 30 µM, 3 h; native RNase A 22.7%
T1 construct: purchased
T1 sequence (P61823 27-150): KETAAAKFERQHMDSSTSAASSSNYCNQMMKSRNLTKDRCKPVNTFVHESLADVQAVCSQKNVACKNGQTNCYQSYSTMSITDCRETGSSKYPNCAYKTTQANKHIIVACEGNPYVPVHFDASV
Experimental: Inhibitors of RNase A are known to perturb the secondary structure of the enzyme upon binding. […] Therefore, the probable changes in the secondary structure of the enzyme by the inhibitors were monitored by observing the CD spectra of RNase A in the absence or presence of compounds U-di-acid (10) and C-di-acid (21) (Figure 5).
Circular Dichroism (CD) was performed in order to monitor the changes in the secondary structure of the enzyme as a result of interaction with the inhibitors. In this method, 200 µL of RNase A (30 µM) were mixed separately with 200 µL of U-di-acid (10) (30 µM) and C-di-acid (21) (30 µM) and incubated for 3 h. From the resulting solutions, an aliquot of 300 µL was used for CD measurements, taking a 1 mm path length quartz cell. The spectra were recorded in the range of 190–240 nm with a scan rate of 50 nm/min. Three scans were accumulated for each spectrum. The secondary structure was determined using an online server, DICHROWEB [46].

RNase A [2] = target: T1, RNase A; test: Inhibition kinetics with RNase A (UV, 2',3'-cCMP substrate, Lineweaver–Burk plot); format: biochemical, Bovine; settings: 0.1-M Mes-NaOH buffer pH 6.0, 0.1 M NaCl, substrate 2',3'-cCMP; mean ± SD; read-out: Inhibition constant Ki
Experimental: In order to determine the type of inhibition and the inhibition constant (Ki) values, kinetic experiments were performed with compounds U-ol-acid (8), U-di-acid (10), C-ol-acid (18), and C-di-acid (21). The competitive nature of inhibition in all the cases was apparent from the nature of the Lineweaver–Burk plots obtained from the kinetic experiments (Figure 4 and Figure S1 (SI)).
A quantitative account of RNase A inhibition by the individual inhibitors was obtained by a UV spectroscopic method described by Anderson and co-workers. The assay was performed in a 0.1-M Mes-NaOH buffer, pH 6.0 containing 0.1 M NaCl using 2',3'-cCMP as the substrate. The inhibition constants were calculated from initial velocity data using a Lineweaver–Burk plot. The slopes from the Lineweaver–Burk double reciprocal plot were plotted against the corresponding inhibitor concentrations to get inhibition constants (Ki).

RNase A [3] = target: T1, RNase A; test: Comparative agarose gel-based assay of RNA degradation by RNase A; format: biochemical, Bovine; settings: inhibitor 0.5 mM, RNase A 1 µM, RNA 10 mg/mL
Experimental: Qualitative indication of RNase A inhibition by the synthetic inhibitors was obtained from a comparative agarose gel-based assay by monitoring the degradation of RNA by RNase A (Figure 2 and Figure 3). The most intense band observed in lane I in each gel is due to the presence of only RNA. […] These experimental observations reaffirmed our assumption that increasing the acidity of the molecules leads to an increase in the inhibitory property of the inhibitor.
Inhibition of RNase A was assayed qualitatively by the degradation of RNA in an agarose gel. In this method, 20 μL of RNase A (1 μM) was mixed with 20 μL (0.5 mM) of compounds U-ol-ol (5), C-ol-ol (16), U-acid (3), C-acid (14), U-ol-acid (8), C-ol-acid (18), U-di-acid (10), and C-di-acid (21) separately to a final volume of 50 μL and the resulting solutions incubated for 3 h. Twenty-microliter aliquots of the incubated mixtures were then mixed with 20 μL of RNA solution (10.0 mg/mL RNA, freshly dissolved in RNase free water) and incubated for another 30 min. Then 10 μL of sample buffer (containing 10% glycerol and 0.025% bromophenol blue) were added to this mixture and 15 μL from each solution were extracted and loaded onto a 1.1% agarose gel. The gel was run using a 0.04-M Tris-Acetic acid-EDTA (TAE) buffer (pH 8.0). The residual RNA was visualized by ethidium bromide staining under UV light.

`Nc1ccn(CC(=O)NCC(=O)O)c(=O)n1` [C-acid (14), [2-(4-Amino-2-oxo-2H-pyrimidin-1-yl)acetylamino] acetic acid] showed a melting point of over 200 °C.
For `Nc1ccn(CC(=O)N(CC(=O)O)CC(=O)O)c(=O)n1` [C-di-acid (21), {[2-(4-Amino-2-oxo-2H-pyrimidin-1-yl)-acetyl]carboxymethylamino}acetic acid], the “α-helix content of RNase A upon binding” value (RNase A [1]) was 29.2%, the Ki (RNase A [2]) was 235 ± 9 µM and the “RNase A inhibition, relative band intensities in agarose gel” value (RNase A [3]) was “relatively more potent inhibitors”. The melting point was 190 to 193 °C.
In the case of `Nc1ccn(CC(=O)N(CCO)CC(=O)O)c(=O)n1` [C-ol-acid (18), [[2-(4-Amino-2-oxo-2H-pyrimidin-1-yl)acetyl]-(2-hydroxyethyl)amino] acetic acid], the Ki (RNase A [2]) is reported as 356 ± 7 µM and the “RNase A inhibition, relative band intensities in agarose gel” value (RNase A [3]) is reported as “relatively more potent inhibitors”.
With `O=C(O)CN(CC(=O)O)C(=O)Cn1ccc(=O)[nH]c1=O` [U-di-acid (10), {Carboxymethyl-[2-(2,4-dioxo-3,4-dihydro-2H-pyrimidin-1-yl)acetyl]amino}acetic acid] the “α-helix content of RNase A upon binding” value (RNase A [1]) was 24.7%, the Ki (RNase A [2]) was 301 ± 15 µM and the “RNase A inhibition, relative band intensities in agarose gel” value (RNase A [3]) was “relatively more potent inhibitors”. For the same compound, the melting point was 118 to 120 °C.
For `O=C(O)CN(CCO)C(=O)Cn1ccc(=O)[nH]c1=O` [U-ol-acid (8)], the Ki (RNase A [2]) was 454 ± 9 µM, the “RNase A inhibition, relative band intensities in agarose gel” value (RNase A [3]) was “relatively more potent inhibitors” and the melting point was 177 to 179 °C.
